Like-named read-outs stand apart in the source and are kept apart here.
What was measured:
replicon cells (1b-Con1) = experiment: Replicon activity assay (1b-Con1 replicon cells, real-time RT-PCR); type: cell-based, HCV; conditions: Hepatitis C virus, 72 h, read-out: Replicon (1b) EC50
replicon cells [1] = experiment: Cytotoxicity in replicon cells (MTS assay, CellTiter 96); conditions: CC50, MTS assay, three days post dosing
replicon cells [2] = system: replicon cells
[3] = target: HCV NS5B RNA-dependent RNA polymerase (1b-BKΔ55) (Hepatitis C virus genotype 1b, UniProt P26663); experiment: biochemical
Sequence of HCV NS5B RNA-dependent RNA polymerase (1b-BKΔ55) (P26663 2420-2955 limits assumed, stated change not applied): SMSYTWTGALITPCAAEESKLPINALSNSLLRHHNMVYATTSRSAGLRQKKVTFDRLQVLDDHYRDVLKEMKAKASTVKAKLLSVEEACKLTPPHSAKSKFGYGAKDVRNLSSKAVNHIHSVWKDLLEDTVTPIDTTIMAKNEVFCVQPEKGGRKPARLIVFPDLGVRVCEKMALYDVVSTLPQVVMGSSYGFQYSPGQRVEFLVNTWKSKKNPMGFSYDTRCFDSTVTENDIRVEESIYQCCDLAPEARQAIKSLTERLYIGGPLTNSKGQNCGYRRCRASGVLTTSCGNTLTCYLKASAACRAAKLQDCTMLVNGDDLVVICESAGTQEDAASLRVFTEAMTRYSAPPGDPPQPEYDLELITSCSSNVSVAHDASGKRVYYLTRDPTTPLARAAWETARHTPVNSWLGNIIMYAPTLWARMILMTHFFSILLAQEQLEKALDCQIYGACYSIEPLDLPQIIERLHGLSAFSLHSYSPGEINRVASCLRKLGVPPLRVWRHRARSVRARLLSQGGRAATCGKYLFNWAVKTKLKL

HCV replicon cells = experiment: Cell-based HCV replicon assay (replicon RNA by Taqman real time PCR); conditions: read-out: 1b EC50

Row | Structure (SMILES) | EC50 (replicon cells (1b-Con1)) [nM] | Cytotoxicity (replicon cells [2]) [µM] | other results
1 | COc1nc(N)nc2c1ncn2C1O[C@@H]2COP(=O)(OC(C)C)O[C@H]2[C@@]1(C)N=[N+]=[N-] (stereo partly drawn) | – | – | EC50 (replicon cells (1b-Con1); 1b-Con1 replicon cells, three days post-dosing): 8300 nM; Cytotoxicity (replicon cells [1]): >100 µM
2 | CC(C)OC(=O)[C@H](C)NP(=O)(OC[C@H]1O[C@@H](n2ccc(=O)[nH]c2=O)[C@](C)(N=[N+]=[N-])[C@@H]1O)Oc1ccccc1 (stereo partly drawn) | 3100 | >100 | –
3 | COC(=O)[C@H](C)NP(=O)(OC[C@H]1O[C@@H](n2ccc(N)nc2=O)[C@](C)(N=[N+]=[N-])[C@@H]1O)Oc1ccc(Cl)c(Cl)c1 (stereo partly drawn) | 35000 | >100 | –
4 | CCOC(=O)[C@H](C)NP(=O)(OC[C@H]1O[C@@H](n2cnc3c(OC)nc(N)nc32)[C@](C)(N=[N+]=[N-])C1O)Oc1ccc(Cl)cc1 (stereo partly drawn) | 1200 | >100 | –
5 | CCOC(=O)c1ccccc1OP(=O)(N[C@@H](C)C(=O)OC)OC[C@H]1O[C@@H](n2ccc(=O)[nH]c2=O)[C@](C)(N=[N+]=[N-])[C@@H]1O (stereo partly drawn) | 2800 | >100 | –
6 | C[C@@]1(N=[N+]=[N-])[C@H](O)[C@@H](COP(=O)(O)OP(=O)(O)OP(=O)(O)O)O[C@H]1n1ccc(=O)[nH]c1=O [Compound 74] | – | – | IC50 [3]: 55000 nM
7 | C[C@@]1(N=[N+]=[N-])[C@H](O)C(COP(=O)(O)OP(=O)(O)OP(=O)(O)O)O[C@H]1n1ccc(N)nc1=O (stereo partly drawn) [Compound 75] | – | – | IC50 [3]: 10000 nM
8 | C[C@@]1(N=[N+]=[N-])[C@H](O)C(COP(=O)(O)OP(=O)(O)OP(=O)(O)O)O[C@H]1n1cnc2c(=O)[nH]c(N)nc21 (stereo partly drawn) [Compound 76] | – | – | IC50 [3]: 1700 nM
9 | CCOC(=O)[C@H](C)NP(=O)(OC[C@H]1O[C@@H](n2cnc3c(OCC)nc(N)nc32)[C@](C)(N=[N+]=[N-])[C@@H]1O)Oc1ccccc1 (stereo partly drawn) [Compound 558] | – | – | EC50 (HCV replicon cells): 1000 nM
10 | CCOP1(=O)OC[C@H]2O[C@@H](n3ccc(=O)[nH]c3=O)[C@](C)(N=[N+]=[N-])[C@@H]2O1 (stereo partly drawn) [Compound 567] | – | – | EC50 (HCV replicon cells; Hepatitis C virus, 72 h): > 100000 nM
11 | CCOP1(=O)OC[C@H]2O[C@@H](n3ccc(=O)[nH]c3=O)[C@](C)(N=[N+]=[N-])[C@@H]2O1 (stereo partly drawn) [Compound 568] | – | – | EC50 (HCV replicon cells): > 100000 nM
12 | CCOc1nc(N)nc2c1ncn2[C@@H]1O[C@@H]2COP(=O)(NC3CCCCC3)O[C@H]2[C@@]1(C)N=[N+]=[N-] (stereo partly drawn) [Compound 572] | – | – | EC50 (HCV replicon cells; Hepatitis C virus, 72 h, HCV replicon 1b, cells harvested on day 3): 100000 nM
13 | CCOC(=O)[C@H](C)NP(=O)(OC[C@H]1O[C@@H](n2cnc3c(OC)nc(N)nc32)[C@](C)(N=[N+]=[N-])[C@@H]1O)Oc1ccccc1 (stereo partly drawn) [drawing 880] | 400 | >100 | –
14 | CCOC(=O)[C@H](C)NP(=O)(OC[C@H]1O[C@@H](n2cnc3c(OCC)nc(N)nc32)[C@](C)(N=[N+]=[N-])[C@@H]1O)Oc1ccccc1 (stereo partly drawn) [drawing 881] | 1000 | >100 | –
15 | CCOC(=O)[C@H](C)NP(=O)(OC[C@H]1O[C@@H](n2cnc3c(N4CCC4)nc(N)nc32)[C@](C)(N=[N+]=[N-])[C@@H]1O)Oc1ccccc1 (stereo partly drawn) [drawing 882] | 1500 | >100 | –
16 | COC(=O)[C@H](C)NP(=O)(OC[C@H]1O[C@@H](n2cnc3c(NC4CC4)nc(N)nc32)[C@](C)(N=[N+]=[N-])[C@@H]1O)Oc1ccccc1Cl (stereo partly drawn) [drawing 883] | 1400 | >100 | –
17 | CC(C)OC(=O)[C@H](C)NP(=O)(OC[C@H]1O[C@@H](n2ccc(N)nc2=O)[C@](C)(N=[N+]=[N-])[C@@H]1O)Oc1ccccc1Cl (stereo partly drawn) [drawing 885] | 1300 | >100 | –
18 | CCCC(CCC)COC(=O)[C@H](C)NP(=O)(OC[C@H]1O[C@@H](n2ccc(=O)[nH]c2=O)[C@](C)(N=[N+]=[N-])[C@@H]1O)Oc1ccccc1 (stereo partly drawn) [drawing 886] | 2100 | 83 | –
19 | CCOc1nc(N)nc2c1ncn2[C@@H]1O[C@H](COP(=O)(N[C@@H](C)C(=O)OC)Oc2ccc(Cl)cc2)[C@@H](O)[C@@]1(C)N=[N+]=[N-] (stereo partly drawn) [drawing 887] | 900 | 25 | –
20 | C[C@H](NP(=O)(OC[C@H]1O[C@@H](n2ccc(=O)[nH]c2=O)[C@](C)(N=[N+]=[N-])[C@@H]1O)Oc1ccc2c(c1)OCO2)C(=O)OCc1ccccc1 (stereo partly drawn) [drawing 888] | 1200 | – | –
21 | CC(C)OC(=O)[C@H](C)NP(=O)(OC[C@H]1O[C@@H](n2ccc(=O)[nH]c2=O)[C@](C)(N=[N+]=[N-])[C@@H]1O)Oc1ccc(Cl)c(Cl)c1 (stereo partly drawn) [drawing 890] | 7600 | 42 | –
22 | CC(C)COC(=O)[C@H](C)NP(=O)(OC[C@H]1O[C@@H](n2ccc(=O)[nH]c2=O)[C@](C)(N=[N+]=[N-])[C@@H]1O)Oc1ccccc1 (stereo partly drawn) [drawing 892] | 800 | 55 | –
